Measurements taken from patent publication US20230085307A1, “PYRIDAZINONE COMPOUND AND HERBICIDE” (NISSAN CHEMICAL CORPORATION, priority 2019, published 2023).

Key:
[1] = test system: late watergrass; experiment: Test Example 1: herbicidal activity, application before weed generation under submerged conditions (Table 16, symbol A); assay type: in vivo, late watergrass (Echinochloa oryzicola)
Procedure, shortened: (§1)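 Alluvial soil was flooded to 4 cm depth, weed seeds were sown mixed and 2.5-leaf rice seedlings were transplanted. On sowing day, the compound's emulsion, diluted in water to a set dose, was applied to the water surface. Plants grew at 25–30 °C and were scored 0–5 after three weeks.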

[2] = test system: wild oat; experiment: Test Example 4: herbicidal effect by soil treatment (Table 19, symbol I); assay type: in vivo, wild oat (Avena fatua); settings: amount of applied herbicide 320 g/ha
Procedure, shortened: (§2)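 Emulsion of test compound, water-diluted to predetermined amount, sprayed on soil after sowing (seed depth ~1.5 cm, sterilized diluvial soil). Greenhouse, 25–30° C. Effect graded at three weeks post-spray.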

[3] = test system: rice flat sedge; experiment: Test Example 3: herbicidal effect by foliage application, Wagner pot (Table 18, symbol E); assay type: in vivo, rice flat sedge (Cyperus iria); settings: amount of applied herbicide 320 g/ha
Procedure, shortened: (§3)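 Plants were sown in alluvial soil held under 0.1–0.5 cm standing water and grown 14 days in a greenhouse at 25–30 °C. An emulsifiable formulation, water-diluted to the set dose, was then sprayed onto the foliage, and effects were scored three weeks later using previously defined criteria.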

[4] = test system: Italian ryegrass; experiment: Test Example 5: herbicidal effect by foliage application, plastic box (Table 20, symbol K); assay type: in vivo, Italian ryegrass (Lolium multiflorum); settings: foliage application
Procedure, shortened: (§4)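 Post-emergence foliar test in sterilized diluvial soil. Compound applied as water-diluted emulsion at a predetermined rate to 14-day-old plants; evaluation at three weeks.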

[5] = test system: redroot pigweed; experiment: Test Example 4: herbicidal effect by soil treatment (Table 19, symbol N); assay type: in vivo, redroot pigweed (Amaranthus retroflexus); settings: amount of applied herbicide 320 g/ha
Procedure, shortened: as §2

[6] = test system: velvetleaf; experiment: Test Example 5: herbicidal effect by foliage application, plastic box (Table 20, symbol M); assay type: in vivo, velvetleaf (Abutilon theophrasti); settings: foliage application
Procedure, shortened: as §4

[7] = test system: windgrass; experiment: Test Example 5: herbicidal effect by foliage application, plastic box (Table 20, symbol L); assay type: in vivo, windgrass (Apera spica-venti); settings: foliage application
Procedure, shortened: as §4

[8] = test system: southern crabgrass; experiment: Test Example 4: herbicidal effect by soil treatment (Table 19, symbol F); assay type: in vivo, southern crabgrass (Digitaria ciliaris); settings: amount of applied herbicide 320 g/ha
Procedure, shortened: as §2

[9] = test system: lambsquarters; experiment: Test Example 4: herbicidal effect by soil treatment (Table 19, symbol O); assay type: in vivo, lambsquarters (Chenopodium album); settings: amount of applied herbicide 320 g/ha
Procedure, shortened: as §2

[10] = test system: oval-leafed pondweed; experiment: Test Example 1: herbicidal activity, application before weed generation under submerged conditions (Table 16, symbol C); assay type: in vivo, oval-leafed pondweed (Monochoria vaginalis)
Procedure, shortened: as §1

[11] = test system: blackgrass; experiment: Test Example 5: herbicidal effect by foliage application, plastic box (Table 20, symbol J); assay type: in vivo, blackgrass (Alopecurus myosuroides); settings: foliage application
Procedure, shortened: as §4

[12] = test system: windgrass; experiment: Test Example 4: herbicidal effect by soil treatment (Table 19, symbol L); assay type: in vivo, windgrass (Apera spica-venti); settings: amount of applied herbicide 320 g/ha
Procedure, shortened: as §2

[13] = test system: lambsquarters; experiment: Test Example 5: herbicidal effect by foliage application, plastic box (Table 20, symbol O); assay type: in vivo, lambsquarters (Chenopodium album); settings: foliage application
Procedure, shortened: as §4

[14] = test system: blackgrass; experiment: Test Example 4: herbicidal effect by soil treatment (Table 19, symbol J); assay type: in vivo, blackgrass (Alopecurus myosuroides); settings: amount of applied herbicide 320 g/ha
Procedure, shortened: as §2

[15] = test system: green foxtail; experiment: Test Example 4: herbicidal effect by soil treatment (Table 19, symbol G); assay type: in vivo, green foxtail (Setaria viridis); settings: amount of applied herbicide 320 g/ha
Procedure, shortened: as §2

[16] = test system: southern crabgrass; experiment: Test Example 5: herbicidal effect by foliage application, plastic box (Table 20, symbol F); assay type: in vivo, southern crabgrass (Digitaria ciliaris); settings: foliage application
Procedure, shortened: as §4

[17] = test system: persian speedwell; experiment: Test Example 5: herbicidal effect by foliage application, plastic box (Table 20, symbol R); assay type: in vivo, Persian speedwell (Veronica persica); settings: foliage application
Procedure, shortened: as §4

[18] = test system: wild oat; experiment: Test Example 5: herbicidal effect by foliage application, plastic box (Table 20, symbol I); assay type: in vivo, wild oat (Avena fatua); settings: foliage application
Procedure, shortened: as §4

[19] = test system: false cleavers; experiment: Test Example 4: herbicidal effect by soil treatment (Table 19, symbol Q); assay type: in vivo, false cleavers (Galium spurium); settings: amount of applied herbicide 320 g/ha
Procedure, shortened: as §2

[20] = test system: barnyard grass; experiment: Test Example 5: herbicidal effect by foliage application, plastic box (Table 20, symbol H); assay type: in vivo, barnyard grass (Echinochloa crus-galli); settings: foliage application
Procedure, shortened: as §4

[21] = test system: Chinese sprangletop; experiment: Test Example 3: herbicidal effect by foliage application, Wagner pot (Table 18, symbol D); assay type: in vivo, chinese sprangletop (Leptochloa chinensis); settings: amount of applied herbicide 320 g/ha
Procedure, shortened: as §3

[22] = test system: redroot pigweed; experiment: Test Example 5: herbicidal effect by foliage application, plastic box (Table 20, symbol N); assay type: in vivo, redroot pigweed (Amaranthus retroflexus); settings: foliage application, AAH 320 g/ha, evaluated three weeks after application
Procedure, shortened: as §4

[23] = test system: chickweed; experiment: Test Example 5: herbicidal effect by foliage application, plastic box (Table 20, symbol P); assay type: in vivo, common chickweed (Stellaria media); settings: foliage application, AAH 320 g/ha, evaluated three weeks after application
Procedure, shortened: as §4

[24] = test system: chickweed; experiment: Test Example 4: herbicidal effect by soil treatment (Table 19, symbol P); assay type: in vivo, common chickweed (Stellaria media); settings: amount of applied herbicide 320 g/ha
Procedure, shortened: as §2

[25] = test system: Japanese bulrush; experiment: Test Example 1: herbicidal activity, application before weed generation under submerged conditions (Table 16, symbol B); assay type: in vivo, Japanese bulrush (Schoenoplectus juncoides)
Procedure, shortened: as §1

[26] = test system: barnyard grass; experiment: Test Example 3: herbicidal effect by foliage application, Wagner pot (Table 18, symbol H); assay type: in vivo, barnyard grass (Echinochloa crus-galli); settings: amount of applied herbicide 320 g/ha
Procedure, shortened: as §3

[27] = test system: velvetleaf; experiment: Test Example 4: herbicidal effect by soil treatment (Table 19, symbol M); assay type: in vivo, velvetleaf (Abutilon theophrasti); settings: amount of applied herbicide 320 g/ha
Procedure, shortened: as §2

[28] = test system: persian speedwell; experiment: Test Example 4: herbicidal effect by soil treatment (Table 19, symbol R); assay type: in vivo, Persian speedwell (Veronica persica); settings: amount of applied herbicide 320 g/ha
Procedure, shortened: as §2

[29] = test system: green foxtail; experiment: Test Example 5: herbicidal effect by foliage application, plastic box (Table 20, symbol G); assay type: in vivo, green foxtail (Setaria viridis); settings: foliage application
Procedure, shortened: as §4

[30] = test system: Italian ryegrass; experiment: Test Example 4: herbicidal effect by soil treatment (Table 19, symbol K); assay type: in vivo, Italian ryegrass (Lolium multiflorum); settings: amount of applied herbicide 320 g/ha
Procedure, shortened: as §2

[31] = test system: barnyard grass; experiment: Test Example 4: herbicidal effect by soil treatment (Table 19, symbol H); assay type: in vivo, barnyard grass (Echinochloa crus-galli); settings: amount of applied herbicide 320 g/ha
Procedure, shortened: as §2

[32] = AAH 320 g/ha, evaluated three weeks after application
[33] = amount of applied herbicide 320 g/ha
[34] = 320 g/ha, three weeks after application

COCCOCOc1c(C)nn(C)c(=O)c1-c1c(-c2ccc(OC(F)F)cc2)sc2ccc(F)cc12 [2-307]
Herbicidal effect on A: late watergrass (grade 0-5) ([1]; 320 g/ha applied herbicide): 0 (Herbicidal rate of 5% or less (almost no effect))
herbicidal effect on I: wild oat [2]: 0 (Herbicidal rate of 5% or less (almost no effect))
herbicidal effect on E: rice flat sedge [3]: 4 (Herbicidal rate of 70% or more and less than 90%)
K: Italian ryegrass, herbicidal effect (criteria 0-5) [4, 32]: 5 (Herbicidal rate of 90% or more (almost completely withered))
herbicidal effect on N: redroot pigweed [5]: 5 (Herbicidal rate of 90% or more (almost completely withered))
M: velvetleaf, herbicidal effect (criteria 0-5) [6, 32]: 5 (Herbicidal rate of 90% or more (almost completely withered))
L: windgrass, herbicidal effect (criteria 0-5) [7, 32]: 3 (Herbicidal rate of 40% or more and less than 70%)
herbicidal effect on F: southern crabgrass [8]: 4 (Herbicidal rate of 70% or more and less than 90%)
herbicidal effect on O: lambsquarters [9]: 5 (Herbicidal rate of 90% or more (almost completely withered))
Herbicidal effect on C: oval-leafed pondweed (grade 0-5) ([10]; 320 g/ha applied herbicide): 0 (Herbicidal rate of 5% or less (almost no effect))
J: blackgrass, herbicidal effect (criteria 0-5) [11, 32]: 4 (Herbicidal rate of 70% or more and less than 90%)
herbicidal effect on L: windgrass [12]: 0 (Herbicidal rate of 5% or less (almost no effect))
O: lambsquarters, herbicidal effect (criteria 0-5) [13, 32]: 5 (Herbicidal rate of 90% or more (almost completely withered))
herbicidal effect on J: blackgrass [14]: 2 (Herbicidal rate of 20% or more and less than 40%)
herbicidal effect on G: green foxtail [15]: 4 (Herbicidal rate of 70% or more and less than 90%)
F: southern crabgrass, herbicidal effect (criteria 0-5) [16, 32]: 2 (Herbicidal rate of 20% or more and less than 40%)
R: persian speedwell, herbicidal effect (criteria 0-5) [17, 32]: 5 (Herbicidal rate of 90% or more (almost completely withered))
I: wild oat, herbicidal effect (criteria 0-5) [18, 32]: 3 (Herbicidal rate of 40% or more and less than 70%)
herbicidal effect on Q: false cleavers [19]: 0 (Herbicidal rate of 5% or less (almost no effect))
H: barnyard grass, herbicidal effect (criteria 0-5) [20, 32]: 5 (Herbicidal rate of 90% or more (almost completely withered))
herbicidal effect on D: Chinese sprangletop [21]: 5 (Herbicidal rate of 90% or more (almost completely withered))
N: redroot pigweed, herbicidal effect (criteria 0-5) [22]: 5 (Herbicidal rate of 90% or more (almost completely withered))
P: chickweed, herbicidal effect (criteria 0-5) [23]: 5 (Herbicidal rate of 90% or more (almost completely withered))
herbicidal effect on P: chickweed [24]: 3 (Herbicidal rate of 40% or more and less than 70%)
Herbicidal effect on B: Japanese bulrush (grade 0-5) ([25]; 320 g/ha applied herbicide): 3 (Herbicidal rate of 40% or more and less than 70%)
herbicidal effect on H: barnyard grass [26]: 5 (Herbicidal rate of 90% or more (almost completely withered))
herbicidal effect on M: velvetleaf [27]: 0 (Herbicidal rate of 5% or less (almost no effect))
herbicidal effect on R: persian speedwell [28]: 5 (Herbicidal rate of 90% or more (almost completely withered))
G: green foxtail, herbicidal effect (criteria 0-5) [29, 32]: 5 (Herbicidal rate of 90% or more (almost completely withered))
herbicidal effect on K: Italian ryegrass [30]: 1 (Herbicidal rate of 5% or more and less than 20%)
herbicidal effect on H: barnyard grass [31]: 3 (Herbicidal rate of 40% or more and less than 70%)

Cc1nn(C)c(=O)c(-c2c(-c3ccc(OC(F)F)cc3)oc3ccc(F)cc23)c1O [9-031]
Herbicidal effect, A: late watergrass [1, 33]: 2 (Herbicidal rate of 20% or more and less than 40%)
I: wild oat, herbicidal effect grade [2]: 0 (Herbicidal rate of 5% or less (almost no effect))
Herbicidal effect on E (rice flat sedge), foliage application [3]: 5 (Herbicidal rate of 90% or more (almost completely withered))
herbicidal effect on Italian ryegrass (K) [4, 34]: 5 (Herbicidal rate of 90% or more (almost completely withered))
N: redroot pigweed, herbicidal effect grade [5]: 5 (Herbicidal rate of 90% or more (almost completely withered))
herbicidal effect on velvetleaf (M) [6, 34]: 5 (Herbicidal rate of 90% or more (almost completely withered))
herbicidal effect on windgrass (L) [7, 34]: 4 (Herbicidal rate of 70% or more and less than 90%)
F: southern crabgrass, herbicidal effect grade [8]: 4 (Herbicidal rate of 70% or more and less than 90%)
O: lambsquarters, herbicidal effect grade [9]: 3 (Herbicidal rate of 40% or more and less than 70%)
Herbicidal effect, C: oval-leafed pondweed [10, 33]: 0 (Herbicidal rate of 5% or less (almost no effect))
herbicidal effect on blackgrass (J) [11, 34]: 4 (Herbicidal rate of 70% or more and less than 90%)
L: windgrass, herbicidal effect grade [12]: 4 (Herbicidal rate of 70% or more and less than 90%)
herbicidal effect on lambsquarters (O) [13, 34]: 5 (Herbicidal rate of 90% or more (almost completely withered))
J: blackgrass, herbicidal effect grade [14]: 0 (Herbicidal rate of 5% or less (almost no effect))
G: green foxtail, herbicidal effect grade [15]: 4 (Herbicidal rate of 70% or more and less than 90%)
herbicidal effect on southern crabgrass (F) [16, 34]: 4 (Herbicidal rate of 70% or more and less than 90%)
herbicidal effect on persian speedwell (R) [17, 34]: 5 (Herbicidal rate of 90% or more (almost completely withered))
herbicidal effect on wild oat (I) [18, 34]: 4 (Herbicidal rate of 70% or more and less than 90%)
Q: false cleavers, herbicidal effect grade [19]: 3 (Herbicidal rate of 40% or more and less than 70%)
herbicidal effect on barnyard grass (H) [20, 34]: 4 (Herbicidal rate of 70% or more and less than 90%)
Herbicidal effect on D (Chinese sprangletop), foliage application [21]: 1 (Herbicidal rate of 5% or more and less than 20%)
P: chickweed, herbicidal effect grade [24]: 4 (Herbicidal rate of 70% or more and less than 90%)
Herbicidal effect, B: Japanese bulrush [25, 33]: 0 (Herbicidal rate of 5% or less (almost no effect))
Herbicidal effect on H (barnyard grass), foliage application [26]: 5 (Herbicidal rate of 90% or more (almost completely withered))
M: velvetleaf, herbicidal effect grade [27]: 2 (Herbicidal rate of 20% or more and less than 40%)
R: persian speedwell, herbicidal effect grade [28]: 5 (Herbicidal rate of 90% or more (almost completely withered))
herbicidal effect on green foxtail (G) [29, 34]: 5 (Herbicidal rate of 90% or more (almost completely withered))
K: Italian ryegrass, herbicidal effect grade [30]: 5 (Herbicidal rate of 90% or more (almost completely withered))
H: barnyard grass, herbicidal effect grade [31]: 4 (Herbicidal rate of 70% or more and less than 90%)
